Patent US4521340A, “Pharmaceutically acceptable salts of the antibiotic C-19393 E5” (priority 1980, dated 1985)
Entries after “also recorded” stand apart in the source; their conditions may differ. Counter-ions that a name gives are not always drawn. Like-named read-outs stand apart in the source and are kept apart here.

Legend:
[1] = test system: SR-135 strain; assay: Growth on minimal medium containing compound (Table 5); assay type: cell-based, Streptomyces griseus subsp. cryophilus; conditions: 28° C., 4 days
Description: (§1) SR-135 and C-19393 strains were incubated on a minimal medium containing sodium thiosulfate, L-cysteine or L-methionine at 28° C. for 4 days.

[2] = test system: C-19393 strain; assay: as above; assay type: cell-based, Streptomyces griseus subsp. cryophilus; conditions: 28° C., 4 days
Description: as §1

[3] = test system: K-4 strain; assay: Growth on minimal medium containing compound (Table 4); assay type: cell-based, Streptomyces griseus subsp. cryophilus; conditions: 28° C., 4 days
Description: (§2) The 20 plates were selected from among those cultivated with about 20-100 colonies per plate. These colonies were inoculated by the replicate method onto a minimal medium (composition: 10 g of glycerol, 1 g of L-asparagine,1 g of dipotassium phosphate, 0.2 g of magnesium sulfate, 20 g of agar and distilled water; pH 7.1) and a screening medium A (the minimal medium supplemented with 50 mg/l of L-cysteine) and each of the media was incubated at 28° C. for 3 days. Another 20 plates were selected from among those cultivated with about 20-100 colonies per plate. These colonies were replicated on a minimal medium (the same as said composition) and a screening medium B (the minimal medium supplemented with 50 mg/l of sodium thiosulfate) and each of the media was incubated at 28° C. for 3 days. The strains thus obtained were incubated on minimal media containing sodium thiosulfate, L-cysteine or L-methionine in various concentrations at 28° C. for 4 days.

[4] = test system: K-101 strain; assay: as above; assay type: cell-based, Streptomyces griseus subsp. cryophilus; conditions: 28° C., 4 days
Description: as §2

[5] = test system: C-19393 strain; assay: as above; assay type: cell-based, Streptomyces griseus subsp. cryophilus; design: key to the marks not given beside the values; conditions: 28° C., 4 days
Description: as §2

[6] = test system: Proteus mirabilis ATCC 21100; assay: Antimicrobial spectrum, MIC (Bouillon agar); assay type: cell-based; conditions: ATCC21100, read-out: Minimum Inhibitory Concentration
Excerpt: (§3) The biological properties of C-19393 E5 are as follows.

[7] = test system: Staphylococcus aureus 209P; assay: Antimicrobial spectrum, MIC (Bouillon agar); assay type: cell-based; conditions: read-out: Minimum Inhibitory Concentration
Excerpt: as §3

[8] = test system: Pseudomonas aeruginosa IFO 3080; assay: Antimicrobial spectrum, MIC (Bouillon agar); assay type: cell-based; conditions: IFO3080, read-out: Minimum Inhibitory Concentration
Excerpt: as §3

[9] = test system: Escherichia coli NIHJ; assay: Antimicrobial spectrum, MIC (Bouillon agar); assay type: cell-based; conditions: read-out: Minimum Inhibitory Concentration
Excerpt: as §3

[10] = test system: Bacillus subtilis PCI 219; assay: Antimicrobial spectrum, MIC (Bouillon agar); assay type: cell-based; conditions: PCI219, read-out: Minimum Inhibitory Concentration
Excerpt: as §3

[11] = test system: Comamonas terrigena IFO 13299; assay: Antimicrobial spectrum, MIC (Bouillon agar); assay type: cell-based; conditions: IFO13299, read-out: Minimum Inhibitory Concentration
Excerpt: as §3

[12] = test system: Alcaligenes faecalis IFO 13111; assay: Antimicrobial spectrum, MIC (Bouillon agar); assay type: cell-based; conditions: IFO13111, read-out: Minimum Inhibitory Concentration
Excerpt: as §3

[13] = test system: Salmonella typhimurium IFO 12529; assay: Antimicrobial spectrum, MIC (Bouillon agar); assay type: cell-based; conditions: Salmonella enterica, read-out: Minimum Inhibitory Concentration
Excerpt: as §3

[14] = test system: Proteus vulgaris IFO 3988; assay: Antimicrobial spectrum, MIC (Bouillon agar); assay type: cell-based; conditions: IFO3988, read-out: Minimum Inhibitory Concentration
Excerpt: as §3

[15] = test system: Serratia marcescens IFO 12648; assay: Antimicrobial spectrum, MIC (Bouillon agar); assay type: cell-based; conditions: IFO12648, read-out: Minimum Inhibitory Concentration
Excerpt: as §3

[16] = test system: Klebsiella pneumoniae IFO 3317; assay: Antimicrobial spectrum, MIC (Bouillon agar); assay type: cell-based; conditions: IFO3317, read-out: Minimum Inhibitory Concentration
Excerpt: as §3

[17] = test system: Sarcina lutea IFO 3232; assay: Antimicrobial spectrum, MIC (Bouillon agar); assay type: cell-based; conditions: Micrococcus luteus, IFO3232, read-out: Minimum Inhibitory Concentration
Excerpt: as §3

[18] = Solubility; assay type: physicochemical
[19] = Stability of aqueous solution; assay type: physicochemical; conditions: neutral pH region
[20] = test system: gram-positive and gram-negative bacteria; assay: Antibacterial activity (summary in words); assay type: cell-based
Excerpt: as §3

[21] = test system: C-19393 strain; assay: microbe, parasite or virus in culture; conditions: Streptomyces griseus, 168 h, read-out: Concentration at which growth was inhibited
[22] = test system: C-19393 strain; conditions: 28° C., 7 days
[23] = test system: SR-135 strain; conditions: 28° C., 7 days

SMILES | Growth ([1]; 3.125 mg/l) | Growth ([1]; 6.25 mg/l) | Growth ([1]; 12.5 mg/l) | Growth ([1]; 25 mg/l) | Growth ([1]; 50 mg/l) | Growth ([1]; 100 mg/l) | Growth ([2]; 3.125 mg/l) | Growth ([2]; 6.25 mg/l) | Growth ([2]; 12.5 mg/l) | Growth ([2]; 25 mg/l) | Growth ([2]; 50 mg/l) | Growth ([2]; 100 mg/l) | Growth ([3]; 3.125 mg/ml (so in the source)) | Growth ([3]; 6.25 mg/ml (so in the source)) | Growth ([3]; 12.5 mg/ml (so in the source)) | Growth ([3]; 25 mg/ml (so in the source)) | Growth ([3]; 50 mg/ml (so in the source)) | Growth ([3]; 100 mg/ml (so in the source)) | Growth ([4]; 3.125 mg/l) | Growth ([4]; 6.25 mg/l) | other results
O=S([O-])([O-])=S.[Na+].[Na+] [Sodium thiosulfate, sodium thiosulfate] | + | ++ | ++ | +++ | +++ | +++ | +++ | +++ | +++ | +++ | +++ | +++ | + | + | ++ | +++ | +++ | +++ | ± | ± | Growth ([4]; 12.5 mg/l): ±; Growth ([4]; 25 mg/l): +; Growth ([4]; 50 mg/l): ++; Growth ([4]; 100 mg/l): +++; Growth ([5]; 3.125 mg/ml (so in the source)): +++; Growth ([5]; 6.25 mg/ml (so in the source)): +++; Growth ([5]; 12.5 mg/ml (so in the source)): +++; Growth ([5]; 25 mg/ml (so in the source)): +++; Growth ([5]; 50 mg/ml (so in the source)): +++; Growth ([5]; 100 mg/ml (so in the source)): +++
CC(=O)N/C=C/[S+]([O-])C1=C(C(=O)O)N2C(=O)[C@@H]([C@H](C)O)[C@H]2C1 (stereo partly drawn) [C-19393 E5 sodium salt] |  |  |  |  |  |  |  |  |  |  |  |  |  |  |  |  |  |  |  |  | MIC [6]: 3.13 µg/mL; MIC [7]: 0.78 µg/mL; MIC [8]: 6.25 µg/mL; MIC [9]: 0.78 µg/mL; MIC [10]: 0.78 µg/mL; MIC [11]: 0.78 µg/mL; MIC [12]: 1.56 µg/mL; MIC [13]: 0.78 µg/mL; MIC [14]: 1.56 µg/mL; MIC [15]: 6.25 µg/mL; MIC [16]: 6.25 µg/mL; MIC [17]: 0.2 µg/mL; Solubility ([18]; in acetone): insoluble; Solubility ([18]; in benzene): insoluble; Solubility ([18]; in ethyl acetate): insoluble; Solubility ([18]; in water): Readily soluble
N[C@@H](CS)C(=O)O [L-Cysteine, L-cysteine] | ++ | +++ | +++ | +++ | +++ | +++ | +++ | +++ | +++ | +++ | +++ | +++ | + | + | ++ | +++ | +++ | +++ | + | ++ | Growth ([4]; 12.5 mg/l): +++; Growth ([4]; 25 mg/l): +++; Growth ([4]; 50 mg/l): +++; Growth ([4]; 100 mg/l): +++; Growth ([5]; 3.125 mg/ml (so in the source)): +++; Growth ([5]; 6.25 mg/ml (so in the source)): +++; Growth ([5]; 12.5 mg/ml (so in the source)): +++; Growth ([5]; 25 mg/ml (so in the source)): +++; Growth ([5]; 50 mg/ml (so in the source)): +++; Growth ([5]; 100 mg/ml (so in the source)): +++
CC(=O)N/C=C/[S+]([O-])C1=C(C(=O)O)N2C(=O)[C@@H]([C@H](C)O)[C@H]2C1 (stereo partly drawn) [C-19393 E5] |  |  |  |  |  |  |  |  |  |  |  |  |  |  |  |  |  |  |  |  | Stability of aqueous solution [19]: stable in the neutral pH region; Antibacterial/antimicrobial activity [20]: highly active against both gram-positive and gram-negative bacteria; also recorded: strong antimicrobial activity against gram-positive and gram-negative bacteria
CSCC[C@H](N)C(=O)O [L-Methionine, L-methionine] | ++ | +++ | +++ | +++ | +++ | +++ | +++ | +++ | +++ | +++ | ++ + | +++ | + | ++ | ++ | +++ | +++ | +++ | + | ++ | Growth ([4]; 12.5 mg/l): +++; Growth ([4]; 25 mg/l): +++; Growth ([4]; 50 mg/l): +++; Growth ([4]; 100 mg/l): +++; Growth ([5]; 3.125 mg/ml (so in the source)): +++; Growth ([5]; 6.25 mg/ml (so in the source)): +++; Growth ([5]; 12.5 mg/ml (so in the source)): +++; Growth ([5]; 25 mg/ml (so in the source)): +++; Growth ([5]; 50 mg/ml (so in the source)): +++; Growth ([5]; 100 mg/ml (so in the source)): +++
O=[Se](=O)(O)O [Sodium selenate, sodium selenate] |  |  |  |  |  |  |  |  |  |  |  |  |  |  |  |  |  |  |  |  | MIC [21]: ≥ 250 µg/mL; Growth ([22]; 62.5 mg/l): +++; Growth ([22]; 125 mg/l): ++; Growth ([22]; 250 mg/l): ±; Growth ([22]; 1000 mg/l): -; Growth ([22]; 2000 mg/l): -; Growth ([23]; 62.5 mg/l): ++; Growth ([23]; 125 mg/l): ++; Growth ([23]; 250 mg/l): ++; Growth ([23]; 500 mg/l): ++; Growth ([23]; 1000 mg/l): ++; Growth ([23]; 2000 mg/l): +
